The data set in a line: Thermo Scientific Acclaim RSLC 120 C18, 100 × 2.1 mm, 2.2 µm, 30 °C; A: 90% water + 10% methanol + 0.01% formic acid + 5 mM ammonium formate; B: methanol + 0.01% formic acid + 5 mM ammonium formate; gradient (min/%B) 0.1/1 3/39 14/99.9 16/99.9. The conditions noted are these: stereoisomer not certain.
As to `COC(=O)CCc1ccc(OCC(O)CNC(C)C)cc1` (configuration not stated), the LC retention time worked out at 5.18 min.

As to `COC1=CC(=O)OC(C=Cc2ccccc2)C1` (configuration not stated), the LC retention time is 8.32 min.

Take `CNC1C(OC2C(OC3C(O)C(O)C(N=C(N)N)C(O)C3N=C(N)N)OC(C)C2(O)CO)OC(CO)C(O)C1O` (configuration not stated): the LC retention time stood at 1.26 min.

As for `CC12CCC3=C4CCC(=O)C=C4CCC3C1CCC2(O)CC#N` (configuration not stated), the LC retention time worked out at 8.09 min.

Regarding `CCCc1nn(C)c2c(=O)[nH]c(-c3cc(C(=O)CN4CC(C)NC(C)C4)ccc3OCC)nc12` (configuration not stated), the LC retention time stood at 7.5 min.

On to `Cc1cnc(C(=O)NCCc2ccc(S(=O)(=O)NC(=O)NC3CCCCC3)cc2)cn1`, for which the LC retention time worked out at 8.11 min.

Regarding `CC1(OC(=O)C=Cc2ccccc2)CC(O)C2(O)C=COC(OC3OC(CO)C(O)C(O)C3O)C12` (configuration not stated), the LC retention time is 8.25 min.

In the case of `Cc1cc(NS(=O)(=O)c2ccc(N)cc2)no1`, the LC retention time stood at 4.6 min.

Turning to `CC(C)NCC(O)COc1cccc2[nH]c3ccccc3c12` (configuration not stated), the LC retention time worked out at 5.49 min.

For the compound `COCCc1ccc(OCC(O)CNC(C)C)cc1` (configuration not stated), the LC retention time amounted to 4.93 min.

With `O=C1N(CCN2CCCCC2)C(=O)C(c2ccccc2)(N2CCCCC2)C(=O)N1CCN1CCCCC1`, the LC retention time came to 7.64 min.

With `N#CCCCCn1cc(C(=O)c2cccc3ccccc23)c2ccccc21`, the LC retention time worked out at 9.69 min.

For `CC(C)N(Cc1ccccc1)C(=O)C(C)(C)C`, the LC retention time turned out to be 10.2 min.

With `CCOP(=S)(OCC)SCSCC`, the LC retention time came to 11.4 min.

On to `COc1ccc2[nH]cc(CCN(C(C)C)C(C)C)c2c1`, for which the LC retention time was found to be 4.81 min.

As to `CCN1CCCC1CNC(=O)c1cc(S(=O)(=O)CC)c(N)cc1OC` (configuration not stated), the LC retention time came to 3.88 min.

As to `CCSCc1ccccc1OC(=O)NC`, the LC retention time came to 7.7 min.

Turning to `COP(=S)(OC)Oc1ccc(Sc2ccc(OP(=S)(OC)OC)cc2)cc1`, the LC retention time was determined as 12.4 min.

For the compound `CNCC1CCCCC1(O)c1cccc(O)c1` (configuration not stated), the LC retention time came out at 4.28 min.

For the compound `COC(=O)C1C(O)CCC2CN3CCc4c([nH]c5ccccc45)C3CC21` (configuration not stated), the LC retention time came out at 5.08 min.

As for `CCCc1nn(C)c2c(=O)[nH]c(-c3cc(S(=O)(=O)N4CCN(C)CC4)ccc3OCC)nc12`, the LC retention time was 7.88 min.

Take `CC(C)Nc1nc(NC(C)C)[nH]c(=O)n1`: the LC retention time was determined as 5.96 min.

As for `CC12CCC(=O)C=C1CCC1C2C(O)CC2(C)C1CCC2(O)C(=O)CO` (configuration not stated), the LC retention time came to 7.84 min.

`CC(=O)C1CCC2C3CCC4=CC(=O)CCC4(C)C3CCC12C` (configuration not stated): the LC retention time amounted to 11.2 min.

`CCCN1CC(NS(=O)(=O)N(CC)CC)CC2Cc3c(O)cccc3CC21` (configuration not stated): the LC retention time was 5.24 min.

As to `COc1ccc(C2Sc3ccccc3N(CCN(C)C)C(=O)C2O)cc1` (configuration not stated), the LC retention time was determined as 6.41 min.

As for `COC(=O)C1C2CCC(CC1OC(=O)c1ccccc1)N2` (configuration not stated), the LC retention time was found to be 5.15 min.

With `CC(C)NC(=O)c1ccccc1O`, the LC retention time was found to be 7.14 min.

Regarding `CN(C)CCC=C1c2ccccc2CSc2ccccc21`, the LC retention time came to 7.61 min.

For `CC(C)NCC(O)COc1ccc(CCOCC2CC2)cc1` (configuration not stated), the LC retention time was 6.68 min.

In the case of `COc1ccc2cc(C(C)C(=O)O)ccc2c1` (configuration not stated), the LC retention time worked out at 8.99 min.

In the case of `CN1CCC23c4c5ccc(O)c4OC2CCCC3C1C5` (configuration not stated), the LC retention time came out at 3.84 min.

As for `CCOc1ccc(NC(=O)OC(C)C)cc1OCC`, the LC retention time was found to be 9.04 min.

Regarding `CCCCCn1nc(C(=O)NC(C(N)=O)C(C)C)c2ccccc21` (configuration not stated), the LC retention time came to 10.5 min.

With `CCCCCn1cc(C(=O)Cc2ccccc2OC)c2ccccc21`, the LC retention time stood at 11.8 min.

Regarding `CC12CC3CC(C)(C1)CC(N)(C3)C2`, the LC retention time was 6.91 min.

With `CC(C)NCC(O)c1ccc(NS(C)(=O)=O)cc1` (configuration not stated), the LC retention time stood at 2.96 min.

As to `O=C1CN=C(c2ccccc2)c2c(sc3c2CCCC3)N1`, the LC retention time was determined as 9.49 min.

As for `CCCCCCCCCc1ccc(OCCO)cc1`, the LC retention time was found to be 13.2 min.

In the case of `CC(C)C(NC(=O)c1nn(CC2CCCCC2)c2ccccc12)C(N)=O` (configuration not stated), the LC retention time was found to be 11.3 min.

On to `CCOP(=S)(OCC)SCS(=O)(=O)C(C)(C)C`, for which the LC retention time worked out at 9.01 min.

For `CC(Cc1ccc2c(c1)OCO2)N(C)C` (configuration not stated), the LC retention time is 4.08 min.

`CCCCCn1cc(C(=O)c2cccc3ccccc23)c2cc(O)ccc21`: the LC retention time turned out to be 11.3 min.

As to `COC(=O)NS(=O)(=O)c1ccc(N)cc1`, the LC retention time was determined as 3.41 min.

On to `Oc1ccc2c3c1OC1C(O)C=CC4C(C2)NCCC341` (configuration not stated), for which the LC retention time was 2.71 min.

`COC(=O)c1ccc(C)cc1C1=NC(C)(C(C)C)C(=O)N1` (configuration not stated): the LC retention time was 7.16 min.

`CC(O)(C(N)=O)c1ccccc1` (configuration not stated): the LC retention time worked out at 12.9 min.

As to `Cc1cc(C)cc(OCC2CNC(=O)O2)c1` (configuration not stated), the LC retention time worked out at 7.86 min.

`Cc1ccc2c(-c3ccccc3)nc(=O)n(C(C)C)c2c1`: the LC retention time turned out to be 9.61 min.

With `CC1=C(C)S(=O)(=O)CCS1(=O)=O`, the LC retention time amounted to 3.73 min.

With `CC(=O)Oc1ccc(C(c2ccc(OC(C)=O)cc2)c2ccccn2)cc1`, the LC retention time was found to be 8.92 min.

As to `CCC(CN(C)C)(CN(C)C)OC(=O)c1ccccc1`, the LC retention time turned out to be 6.07 min.

As to `CN(C)C(=O)NC1CCCCCCC1`, the LC retention time was 8.47 min.

As to `CN(CC=Cc1ccccc1)Cc1cccc2ccccc12`, the LC retention time amounted to 8.52 min.

For the compound `COCC(=O)N(c1c(C)cccc1C)N1CCOC1=O`, the LC retention time was 6.29 min.

For the compound `CCOC(=O)C(c1ccccc1)C1CCCCN1` (configuration not stated), the LC retention time came to 5.08 min.

Turning to `CN1CCCCC1Cn1cc(C(=O)C2C(C)(C)C2(C)C)c2ccccc21` (configuration not stated), the LC retention time was 8.81 min.

As for `CC(C)(C)c1n[nH]c(=O)n(N)c1=O`, the LC retention time worked out at 5.89 min.

`CN(C)CCc1c[nH]c2ccccc12`: the LC retention time amounted to 3.94 min.

For `CCCCn1cc(C(=O)c2cccc3ccccc23)c2ccccc21`, the LC retention time amounted to 11.9 min.

Consider `c1ccc(CN(CC2=NCCN2)c2ccccc2)cc1`, for which the LC retention time amounted to 6.41 min.

As for `CCN1CC(CCN2CCOCC2)C(c2ccccc2)(c2ccccc2)C1=O` (configuration not stated), the LC retention time was found to be 6.23 min.

For `CN1CCN2c3ccccc3Cc3ccccc3C2C1` (configuration not stated), the LC retention time was 6.94 min.

In the case of `CNC(C)Cc1ccccc1` (configuration not stated), the LC retention time came to 4.21 min.

As to `CC(C)NCC(O)COc1cccc2[nH]ccc12` (configuration not stated), the LC retention time stood at 3.89 min.

Regarding `CCCNC(C)Cc1ccccc1` (configuration not stated), the LC retention time turned out to be 4.83 min.

On to `CN(C)C(CSS(=O)(=O)c1ccccc1)CSS(=O)(=O)c1ccccc1`, for which the LC retention time was 9.6 min.

Regarding `CN1CCCCC(n2cc(C(=O)c3cccc4ccccc34)c3ccccc32)C1` (configuration not stated), the LC retention time was found to be 8.61 min.

For the compound `COC(=O)Nc1nc2ccc(Sc3ccccc3)cc2[nH]1`, the LC retention time is 10.3 min.

`COc1ccc(Cc2cnc(N)nc2N)cc1OC`: the LC retention time amounted to 3.88 min.

On to `Nc1ccc(N=Nc2ccccc2)c(N)n1`, for which the LC retention time was 8.49 min.

Turning to `CN1CCCC1Cc1c[nH]c2ccc(CCS(=O)(=O)c3ccccc3)cc12` (configuration not stated), the LC retention time came out at 5.51 min.

These data come from the RepoRT retention time repository (doi:10.1016/j.jhazmat.2019.121712).
